Test results taken from US11547735B2, “Composition for ameliorating psoriasis symptoms containing extract of Thalictrum squarrosum steph” (KOREA INSTITUTE OF SCIENCE AND TECHNOLOGY, priority 2020, dated 2023).

Tests used:
[1] = tested on: filaggrin, loricrin, keratin 1 and keratin 14; assay: Biomarkers for epithelial tissue damage in back skin by immunofluorescence; assay type: in vivo, Balb/c mice; conditions: after treatment for a week, versus IMQ group
Text: (§1) 6-week-old male Balb/c mice (Kangwon Life Science, Korea) were purchased and acclimated for a week, and psoriasis was induced using 5% imiquimod (Donga ST, Korea). FIG. 1 is a schematic experimental scheme of an animal model. Anti-psoriatic efficacy was investigated using a total of 20 animal models including 5 animals per experimental group.
(§2) In order to determine the effect of the extract of Thalictrum squarrosum steph on psoriasis caused by imiquimod, the experimental animals of Section 2-1 were used. The following four experimental groups were constructed and five animals were randomly assigned to each group:
(§3) The experiment was conducted by inducing psoriasis with IMQ cream and then performing daily application in the amount shown in FIG. 2 to the experimental group and the DEX group. FIG. 3 is an image showing the treatment group for 7 days compared to the psoriasis-induced model as the animal experimental model.
After treatment for a week, back skin tissue was removed from each animal and a paraffin block was then prepared. A paraffin block was cut to 5 μm to prepare a slide sample, and then the change in biomarkers for epithelial tissue damage due to psoriasis was measured through immunofluorescence.

[2] = tested on: psoriasis caused by imiquimod; assay: Epithelial thickness of back skin by H&E staining in imiquimod psoriasis model; assay type: in vivo, Balb/c mice; conditions: after treatment for a week, compared to the IMQ group
Text: as §1, §2, §3
After treatment for a week, the back skin tissue was removed from each animal, and then a paraffin block was prepared. The paraffin block was cut to 5 μm to prepare a slide sample, and then the change in the thickness of the skin tissue was measured through H&E staining.

## C[C@@H]1C[C@H]2[C@@H]3CCC4=CC(=O)C=C[C@]4(C)[C@@]3(F)[C@@H](O)C[C@]2(C)[C@@]1(O)C(=O)CO [DEX, dexamethasone]
[1]
  expression level of filaggrin: increased
  expression level of keratin 1: increased
  expression level of keratin 14: increased
  expression level of loricrin: increased
[2]
  thickness of the epithelial layer: decreased thickness
